Tested on: HCV2aChLuc virus
Assay: In vitro HCVcc entry assay: HCV2aChLuc virus infection of Huh7 cells, Renilla luciferase read-out
Type: cell-based, HCV genotype 2a
Conditions: Hepatitis C virus, Huh-7, read-out: Activity class (IC50), tested according to the method of Example 3

CNc1ccc(-c2ccc(C(=O)C(=O)Nc3cc(C(C)(C)C)ccc3OC)c3ccccc23)cn1 [Compound 136]
IC50: < 5 nM

CCCS(=O)(=O)Nc1cc(C(C)(C)C)cc(NC(=O)C(=O)c2ccc(N3CCC(CC(=O)OCC)CC3)c3ccccc23)c1OC [Compound 87]
IC50: > 500 nM

O=C(NC1CCc2ccccc21)C(=O)c1ccc(OCCN2CCOCC2)c2ccccc12 (centres unmarked) [Compound 115]
IC50: > 500 nM

COc1c(NC(=O)C(=O)c2ccc(OCCN3CCOCC3)c3ccccc23)cc(C(C)(C)C)cc1C(=O)NC1CCN(C)CC1 [Compound 103]
IC50: > 500 nM

Cc1cc(-n2nc(C(C)(C)C)cc2NC(=O)C(=O)c2ccc(OCCN3CCOCC3)c3ccccc23)ccc1F [Compound 45]
IC50: > 500 nM

CC(C)(C)CCNC(=O)C(=O)c1ccc(OCCN2CCOCC2)c2ccccc12 [Compound 66]
IC50: > 500 nM

COc1c(NC(=O)C(=O)c2ccc(OCCN3CCOCC3)c3ccccc23)cc(C(C)(C)C)cc1C(=O)N1CCN(C(C)C)CC1 [Compound 99]
IC50: 5 to 500 nM

Cc1ccc(-n2nc(C(C)(C)C)cc2NC(=O)C(=O)c2ccc(OCCN3CCCOCC3)c3ccccc23)cc1 [Compound 38]
IC50: > 500 nM

CC(C)(C)c1ccc(O)c(NC(=O)C(=O)c2ccc(OCCN3CCOCC3)c3ccccc23)c1 [Compound 122]
IC50: 5 to 500 nM

COc1c(NC(=O)C(=O)c2ccc(OCCN(C)C)c3ccccc23)cc(C(C)(C)C)cc1NS(C)(=O)=O [Compound 80]
IC50: > 500 nM

O=C(Nc1cccc2c1CCC2)C(=O)c1ccc(OCCN2CCOCC2)c2ccccc12 [Compound 65]
IC50: 5 to 500 nM

COCCOCCOc1ccc(C(=O)C(=O)Nc2cc(C(C)(C)C)cc(NS(C)(=O)=O)c2OC)c2ccccc12 [Compound 86]
IC50: > 500 nM

COc1c(NC(=O)C(=O)c2ccc(OCCN3CCOCC3)c3ccccc23)cc(C(C)(C)C)cc1C(=O)N1CCNCC1 [Compound 97]
IC50: > 500 nM

COc1c(NC(=O)C(=O)c2ccc(OCCN3CCOCC3)c3ccccc23)cc(C(C)(C)C)cc1C(=O)N1CCCCC1CN(C)C (centres unmarked) [Compound 106]
IC50: > 500 nM

COc1ccc(C(C)(C)C)cc1NC(=O)C(=O)c1ccc(Nc2ccnc(N3CCOCC3)n2)c2ccccc12 [Compound 73]
IC50: > 500 nM

CC(C)(C)c1cccc(NC(=O)C(=O)c2ccc(OCCN3CCOCC3)c3ccccc23)c1 [Compound 27]
IC50: > 500 nM

O=C(Nc1n[nH]c2ccccc12)C(=O)c1ccc(OCCN2CCOCC2)c2ccccc12 [Compound 113]
IC50: > 500 nM

COc1c(NC(=O)C(=O)c2ccc(OCCN3CCOCC3)c3ccccc23)cc(C(C)(C)C)cc1-n1ccnn1 [Compound 108]
IC50: 5 to 500 nM

O=C(Nc1cc(C(F)(F)F)ccc1Br)C(=O)c1ccc(OCCN2CCOCC2)c2ccccc12 [Compound 83]
IC50: > 500 nM

CCCNC(=O)c1cc(C(C)(C)C)cc(NC(=O)C(=O)c2ccc(OCCN3CCOCC3)c3ccccc23)c1OC [Compound 18, 5-tert-butyl-2-methoxy-3-(2-(4-(2-morpholinoethoxy)naphthalen-1-yl)-2-oxoacetamido)-N-propylbenzamide]
IC50: < 5 nM

CCOc1ccc(C(=O)C(=O)Nc2cc(C(C)(C)C)ccc2OC)c2ccccc12 [Compound 19, N-(5-tert-butyl-2-methoxyphenyl)-2-(4-ethoxynaphthalen-1-yl)-2-oxoacetamide]
IC50: < 5 nM

COc1c(Cl)cc(C(C)(C)C)cc1NC(=O)C(=O)c1ccc(OCCN2CCOCC2)c2ccccc12 [Compound 72]
IC50: 5 to 500 nM

COc1c(NC(=O)C(=O)c2ccc(OCCN3CCOCC3)c3ccccc23)cc(C(C)(C)C)cc1C(=O)NC1CCNCC1 [Compound 105]
IC50: > 500 nM

COc1c(C)cc(C(C)(C)C)cc1NC(=O)C(=O)c1ccc(OCCN2CCOCC2)c2ccccc12 [Compound 31]
IC50: > 500 nM

COc1c(Br)cc(C(C)(C)C)cc1NC(=O)C(=O)c1ccc(OCCN2CCOCC2)c2ccccc12 [Compound 89]
IC50: 5 to 500 nM

CNC(=O)c1cc(C(C)(C)C)cc(NC(=O)C(=O)c2ccc(OCCN3CCOCC3)c3ccccc23)c1OC [Compound 6, 5-tert-butyl-2-methoxy-N-methyl-3-(2-(4-(2-morpholinoethoxy)naphthalen-1-yl)-2-oxoacetamido)benzamide]
IC50: < 5 nM

CC(C)(C)c1cc(CN2CCOCC2)c(O)c(NC(=O)C(=O)c2ccc(OCCN3CCOCC3)c3ccccc23)c1 [Compound 29]
IC50: > 500 nM

COc1ccc(C(C)(C)C)cc1NC(=O)C(=O)c1ccc(OC)c2ccccc12 [Compound 14, N-(5-tert-butyl-2-methoxyphenyl)-2-(4-methoxynaphthalen-1-yl)-2-oxoacetamide]
IC50: < 5 nM

COc1c(NC(=O)C(=O)c2ccc(Br)c3ccccc23)cc(C(C)(C)C)cc1C(=O)NC1CC1 [Compound 135]
IC50: < 5 nM

COc1ccc(C(C)(C)C)cc1NC(=O)C(=O)c1ccc(-c2cccnc2)c2ccccc12 [Compound 127]
IC50: > 500 nM

COc1c(NC(=O)C(=O)c2ccc(OCCCS(=O)(=O)N(C)C)c3ccccc23)cc(C(C)(C)C)cc1NS(C)(=O)=O [Compound 123]
IC50: 5 to 500 nM

O=C(NC1Cc2ccccc2C1)C(=O)c1ccc(OCCN2CCOCC2)c2ccccc12 [Compound 114]
IC50: > 500 nM

CCNC(=O)c1cc(C(C)(C)C)cc(NC(=O)C(=O)c2ccc(OCCN3CCOCC3)c3ccccc23)c1OC [Compound 7, 5-tert-butyl-N-ethyl-2-methoxy-3-(2-(4-(2-morpholinoethoxy)naphthalen-1-yl)-2-oxoacetamido)benzamide]
IC50: < 5 nM

COc1c(NC(=O)C(=O)c2ccc(OCCN3CCOCC3)c3ccccc23)cc(C(C)(C)C)cc1C(=O)N1CCCN(C)CC1 [Compound 102]
IC50: > 500 nM

COc1c(NC(=O)C(=O)c2ccc(OCCN3CCOCC3)c3ccccc23)cc(C(F)(F)F)cc1NS(C)(=O)=O [Compound 116]
IC50: > 500 nM

COc1c(NC(=O)C(=O)c2ccc(OCCN3CCOCC3)c3ccccc23)cc(C(C)(C)C)cc1C(=O)N1CCNC(=O)C1 [Compound 26]
IC50: 5 to 500 nM

CCOc1ccc(C(C)(C)C)cc1NC(=O)C(=O)c1ccc(OCCN2CCOCC2)c2ccccc12 [Compound 41]
IC50: > 500 nM

CCNC(=O)c1cc(C(C)(C)C)cc(NC(=O)C(=O)c2ccc(OCCN3CCOCC3)c3ccccc23)c1O [Compound 71]
IC50: 5 to 500 nM

COCCNC(=O)c1cc(C(C)(C)C)cc(NC(=O)C(=O)c2ccc(OCCN3CCOCC3)c3ccccc23)c1OC [Compound 9, 5-tert-butyl-2-methoxy-N-(2-methoxyethyl)-3-(2-(4-(2-morpholinoethoxy)naphthalen-1-yl)-2-oxoacetamido)benzamide]
IC50: < 5 nM

Cc1cc(C(C)(C)C)cc(NC(=O)C(=O)c2ccc(OCCN3CCOCC3)c3ccccc23)c1O [Compound 30]
IC50: > 500 nM

COc1c(NC(=O)C(=O)c2ccc(OCCN3CCOCC3)c3ccccc23)cc(C(C)(C)C)cc1NC(=O)N1CCCC1 [Compound 22]
IC50: 5 to 500 nM

O=C(Nc1cc(C(F)(F)F)ccc1Cl)C(=O)c1ccc(OCCN2CCOCC2)c2ccccc12 [Compound 82]
IC50: > 500 nM

COc1c(NC(=O)CCCCC2SCC3NC(=O)NC32)cc(C(C)(C)C)cc1NC(=O)C(=O)c1ccc(OCCN2CCOCC2)c2ccccc12 (centres unmarked) [Compound 120]
IC50: 5 to 500 nM

COc1ccc(C(F)(F)F)cc1NC(=O)C(=O)c1ccc(OCCN2CCOCC2)c2ccccc12 [Compound 28]
IC50: > 500 nM

COc1c(NC(=O)C(=O)c2ccc(OCCN3CCOCC3)c3ccccc23)cc(C(C)(C)C)cc1S(=O)(=O)N(C)C [Compound 2, N-(5-tert-butyl-3-(N,N-dimethylsulfamoyl)-2-methoxyphenyl)-2-(4-(2-morpholinoethoxy)naphthalen-1-yl)-2-oxoacetamide]
IC50: < 5 nM

COc1c(C#N)cc(C(C)(C)C)cc1NC(=O)C(=O)c1ccc(OCCN2CCOCC2)c2ccccc12 [Compound 4, N-(5-tert-butyl-3-cyano-2-methoxyphenyl)-2-(4-(2-morpholinoethoxy)naphthalen-1-yl)-2-oxoacetamide]
IC50: < 5 nM

O=C(Nc1nc(Cl)ccc1[N+](=O)[O-])C(=O)c1ccc(OCCN2CCOCC2)c2ccccc12 [Compound 118]
IC50: > 500 nM

COc1c(NC(=O)C(=O)c2ccc(OCCN3CCOCC3)c3ccccc23)cc(C(C)(C)C)cc1C(=O)N1CC2CCC(C1)N2 [Compound 104]
IC50: > 500 nM

COc1ccc(C(C)(C)C)cc1NC(=O)C(=O)c1ccc(Br)c2ccccc12 [Compound 134]
IC50: 5 to 500 nM

COc1c(NC(=O)C(=O)c2ccc(OCCn3ccnc3)c3ccccc23)cc(C(C)(C)C)cc1NS(C)(=O)=O [Compound 55]
IC50: 5 to 500 nM

COc1c(NC(=O)C(=O)c2ccc(Nc3ccnc(N4CCOCC4)n3)c3ccccc23)cc(C(C)(C)C)cc1C(N)=O [Compound 124]
IC50: > 500 nM

CC(C)(C)c1nnc(NC(=O)C(=O)c2ccc(OCCN3CCOCC3)c3ccccc23)s1 [Compound 61]
IC50: > 500 nM

COc1c(NC(=O)C(=O)c2ccc(OCCN(CCOCc3ccccc3)CCOCc3ccccc3)c3ccccc23)cc(C(C)(C)C)cc1NS(C)(=O)=O [Compound 93]
IC50: > 500 nM

COc1c(NC(=O)C(=O)c2ccc(OCCN3CC(C)OC(C)C3)c3ccccc23)cc(C(C)(C)C)cc1NS(C)(=O)=O (centres unmarked) [Compound 57]
IC50: 5 to 500 nM

CCNC(=O)c1cc(C(C)(C)C)cc(NC(=O)C(=O)c2ccc(-c3ccc(NC)nc3)c3ccccc23)c1OC [Compound 138]
IC50: < 5 nM

Cc1ccc(-n2nc(C(C)(C)C)cc2NC(=O)C(=O)c2ccc(OCCN3CC[S+]([O-])CC3)c3ccccc23)cc1 [Compound 37]
IC50: > 500 nM

COc1ccc(C(C)(C)C)cc1NC(=O)C(=O)c1ccc(-c2ccc(N(C)C)nc2)c2ccccc12 [Compound 126]
IC50: > 500 nM

COc1c(NC(=O)C(=O)c2ccc(OCCN3CCOCC3)c3ccccc23)cc(C(C)(C)C)cc1C(=O)N1CCN(CCO)CC1 [Compound 101]
IC50: > 500 nM

CC(C)(C)c1cc(C#N)cc(NC(=O)C(=O)c2ccc(Br)c3ccccc23)c1 [Compound 88]
IC50: > 500 nM

O=C(Nc1ccc2c(c1)CCC2)C(=O)c1ccc(OCCN2CCOCC2)c2ccccc12 [Compound 64]
IC50: > 500 nM

COc1c(NC(=O)C(=O)c2ccc(OCC[N+]3([O-])CCOCC3)c3ccccc23)cc(C(C)(C)C)cc1NS(C)(=O)=O [Compound 92]
IC50: 5 to 500 nM

Cc1cccc(-n2nc(C(C)(C)C)cc2NC(=O)C(=O)c2ccc(OCCN3CCOCC3)c3ccccc23)c1C [Compound 49]
IC50: > 500 nM

— patent US20110117055A1, “Methods of Treating Hepatitis C Virus with Oxoacetamide Compounds” (priority 2009, published 2011)
